According to ChEMBL document CHEMBL1201862, “PubChem BioAssay data set” (2004):
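Grown in 96-well plates, cells were treated for 48 hours with each compound at five concentrations. Insufficient inhibition: endpoint recorded as highest concentration tested. GI50 is the concentration that inhibits growth by half.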 Calls of active or inactive are those of the source. No stated cut-off is given here; in the data, active = GI50 up to about 1.1 µM and inactive = higher.

Key:
Test in all cases: growth of human tumour cells (NCI), 48 h
SF-268 = system: SF-268
SK-OV-3 = system: SK-OV-3
HL-60 = system: HL-60
T47D = system: T47D
SR = system: SR
Hs-578T = system: Hs-578T
CAKI-1 = system: CAKI-1
SK-MEL-2 = system: SK-MEL-2
IGROV-1 = system: IGROV-1
SF-295 = system: SF-295
786-0 = system: 786-0
MCF7 = system: MCF7
U-251 = system: U-251
UACC-62 = system: UACC-62
UO-31 = system: UO-31
K562 = system: K562
SW-620 = system: SW-620
ACHN = system: ACHN
NCI-H23 = system: NCI-H23
NCI-H226 = system: NCI-H226
SN12C = system: SN12C
RXF 393 = system: RXF 393
MDA-MB-231 = system: MDA-MB-231
Malme-3M = system: Malme-3M
PC-3 = system: PC-3
CCRF-CEM = system: CCRF-CEM
OVCAR-8 = system: OVCAR-8
HT-29 = system: HT-29
BT-549 = system: BT-549
M14 = system: M14
HOP-62 = system: HOP-62
TK-10 = system: TK-10
SNB-19 = system: SNB-19
NCI-H522 = system: NCI-H522
HCT-15 = system: HCT-15
SF-539 = system: SF-539
LOX IMVI = system: LOX IMVI
NCI-H460 = system: NCI-H460
COLO 205 = system: COLO 205
RPMI-8226 = system: RPMI-8226
HCT-116 = system: HCT-116
HCC 2998 = system: HCC 2998
NCI/ADR-RES = system: NCI/ADR-RES
MDA-MB-435 = system: MDA-MB-435
HOP-92 = system: HOP-92
KM12 = system: KM12
MOLT-4 = system: MOLT-4
DU-145 = system: DU-145
SNB-75 = system: SNB-75
SK-MEL-5 = system: SK-MEL-5
OVCAR-3 = system: OVCAR-3
A549 = system: A549
EKVX = system: EKVX
SK-MEL-28 = system: SK-MEL-28
A498 = system: A498
OVCAR-4 = system: OVCAR-4
MDA-N = system: MDA-N
UACC-257 = system: UACC-257
OVCAR-5 = system: OVCAR-5

`Cn1c2ccccc2c2c(-c3ccccc3)cc3c(c21)C(=O)C=CC3=O` was tested, and the GI50 (SF-268) was 3.36 µM (inactive), the GI50 (SK-OV-3) was > 10 µM (inactive) and the GI50 (HL-60) was 0.361 µM (active). The GI50 (T47D) was 1.38 µM (inactive), the GI50 (SR) was 0.195 µM (active) and the GI50 (Hs-578T) was 3.54 µM (inactive). The GI50 (CAKI-1) was 1.91 µM (inactive), the GI50 (SK-MEL-2) was 3.03 µM (inactive) and the GI50 (IGROV-1) was 2.3 µM (inactive). For the same compound, the GI50 (SF-295) was > 10 µM (inactive), the GI50 (786-0) was 1.57 µM (inactive) and the GI50 (MCF7) was 1.72 µM (inactive). The GI50 (U-251) was 4.05 µM (inactive), the GI50 (UACC-62) was 1.73 µM (inactive) and the GI50 (UO-31) was 1.61 µM (inactive). The GI50 (K562) was 0.249 µM (active), the GI50 (SW-620) was 0.421 µM (active) and the GI50 (ACHN) was 1.63 µM (inactive). For the same compound, the GI50 (NCI-H23) was 1.94 µM (inactive), the GI50 (NCI-H226) was 2.18 µM (inactive) and the GI50 (SN12C) was 2.39 µM (inactive). For the same compound, the GI50 (RXF 393) was 2.2 µM (inactive), the GI50 (MDA-MB-231) was 2.43 µM (inactive) and the GI50 (Malme-3M) was 2.06 µM (inactive). The GI50 (PC-3) was 3.02 µM (inactive), the GI50 (CCRF-CEM) was 0.228 µM (active) and the GI50 (OVCAR-8) was 2.07 µM (inactive). The GI50 (HT-29) was 3.83 µM (inactive), the GI50 (BT-549) was 1.6 µM (inactive) and the GI50 (M14) was 1.46 µM (inactive). For the same compound, the GI50 (HOP-62) was > 7.4 µM (inactive), the GI50 (TK-10) was 1.92 µM (inactive) and the GI50 (SNB-19) was 4.05 µM (inactive). The GI50 (NCI-H522) was 1.23 µM (inactive), the GI50 (HCT-15) was 1.85 µM and the GI50 (SF-539) was 1.92 µM (inactive). The GI50 (LOX IMVI) was 3.26 µM (inactive), the GI50 (NCI-H460) was 6.07 µM (inactive) and the GI50 (COLO 205) was 0.632 µM (active). For the same compound, the GI50 (RPMI-8226) was 1.15 µM (inactive), the GI50 (HCT-116) was 1.45 µM (inactive) and the GI50 (HCC 2998) was > 4.88 µM (inactive). For the same compound, the GI50 (NCI/ADR-RES) was 3.33 µM (inactive), the GI50 (MDA-MB-435) was 1.92 µM (inactive) and the GI50 (HOP-92) was 1.96 µM (inactive). For the same compound, the GI50 (KM12) was 4.43 µM (inactive), the GI50 (MOLT-4) was 0.28 µM (active) and the GI50 (DU-145) was 5.4 µM (inactive). The GI50 (SNB-75) was > 5.66 µM (inactive), the GI50 (SK-MEL-5) was 2.96 µM (inactive) and the GI50 (OVCAR-3) was 2.05 µM (inactive). For the same compound, the GI50 (A549) was > 10 µM (inactive), the GI50 (EKVX) was > 5.3 µM (inactive) and the GI50 (SK-MEL-28) was 2 µM (inactive). For the same compound, the GI50 (A498) was 2.23 µM (inactive), the GI50 (OVCAR-4) was 2.46 µM (inactive) and the GI50 (MDA-N) was 2.37 µM (inactive). The GI50 (UACC-257) was 2.11 µM (inactive) and the GI50 (OVCAR-5) was > 8.51 µM (inactive).

`Cc1nc(C)c(N2CCN(C#N)CC2)c(O)n1` was tested, and the GI50 (SF-268) was > 100 µM (inactive), the GI50 (SK-OV-3) was > 100 µM (inactive) and the GI50 (HL-60) was > 100 µM (inactive). The GI50 (T47D) was > 100 µM (inactive), the GI50 (SR) was > 100 µM (inactive) and the GI50 (Hs-578T) was > 100 µM (inactive). The GI50 (CAKI-1) was > 100 µM (inactive), the GI50 (IGROV-1) was > 100 µM (inactive) and the GI50 (SF-295) was > 100 µM (inactive). For the same compound, the GI50 (786-0) was > 100 µM (inactive), the GI50 (MCF7) was > 100 µM (inactive) and the GI50 (U-251) was 77.8 µM (inactive). For the same compound, the GI50 (UACC-62) was > 100 µM (inactive), the GI50 (UO-31) was > 100 µM (inactive) and the GI50 (K562) was > 100 µM (inactive). For the same compound, the GI50 (SW-620) was > 100 µM (inactive), the GI50 (ACHN) was > 100 µM (inactive) and the GI50 (NCI-H23) was > 100 µM (inactive). For the same compound, the GI50 (NCI-H226) was > 100 µM (inactive), the GI50 (SN12C) was > 100 µM (inactive) and the GI50 (RXF 393) was > 100 µM (inactive). The GI50 (MDA-MB-231) was > 100 µM (inactive), the GI50 (Malme-3M) was > 100 µM (inactive) and the GI50 (PC-3) was > 100 µM (inactive). For the same compound, the GI50 (CCRF-CEM) was > 100 µM (inactive), the GI50 (OVCAR-8) was 93.3 µM (inactive) and the GI50 (HT-29) was > 100 µM (inactive). For the same compound, the GI50 (BT-549) was > 100 µM (inactive), the GI50 (M14) was > 100 µM (inactive) and the GI50 (HOP-62) was > 100 µM (inactive). The GI50 (TK-10) was > 100 µM (inactive), the GI50 (SNB-19) was > 100 µM (inactive) and the GI50 (NCI-H522) was > 100 µM (inactive). For the same compound, the GI50 (HCT-15) was greater than 100 µM, the GI50 (SF-539) was > 100 µM (inactive) and the GI50 (LOX IMVI) was > 100 µM (inactive). For the same compound, the GI50 (NCI-H460) was > 100 µM (inactive), the GI50 (COLO 205) was > 100 µM (inactive) and the GI50 (RPMI-8226) was > 100 µM (inactive). For the same compound, the GI50 (HCT-116) was > 100 µM (inactive), the GI50 (HCC 2998) was > 100 µM (inactive) and the GI50 (NCI/ADR-RES) was > 100 µM (inactive). The GI50 (MDA-MB-435) was > 100 µM (inactive), the GI50 (HOP-92) was > 100 µM (inactive) and the GI50 (KM12) was > 100 µM (inactive). The GI50 (MOLT-4) was > 100 µM (inactive), the GI50 (DU-145) was > 100 µM (inactive) and the GI50 (SNB-75) was 0.0442 µM (active). For the same compound, the GI50 (SK-MEL-5) was > 100 µM (inactive), the GI50 (OVCAR-3) was > 100 µM (inactive) and the GI50 (A549) was > 100 µM (inactive). The GI50 (EKVX) was > 100 µM (inactive), the GI50 (SK-MEL-28) was > 100 µM (inactive) and the GI50 (A498) was > 100 µM (inactive). The GI50 (OVCAR-4) was > 100 µM (inactive), the GI50 (MDA-N) was > 100 µM (inactive) and the GI50 (UACC-257) was > 100 µM (inactive).
